Here are results for five compounds from patent US4096173A, “Chlorinated 1-aminoindane N-methyl transferase inhibitors” (Eli Lilly and Company, priority 1977, dated 1978).

Assay [1] addresses T1, NMT from rabbit adrenals (norephineprine N-methyl transferase, PNMT) (Oryctolagus cuniculus, UniProt G1TT82).
T1 construct: NMT from rabbit adrenals; from tissue; host or cells: rabbit adrenals
T1 sequence (G1TT82 1-286): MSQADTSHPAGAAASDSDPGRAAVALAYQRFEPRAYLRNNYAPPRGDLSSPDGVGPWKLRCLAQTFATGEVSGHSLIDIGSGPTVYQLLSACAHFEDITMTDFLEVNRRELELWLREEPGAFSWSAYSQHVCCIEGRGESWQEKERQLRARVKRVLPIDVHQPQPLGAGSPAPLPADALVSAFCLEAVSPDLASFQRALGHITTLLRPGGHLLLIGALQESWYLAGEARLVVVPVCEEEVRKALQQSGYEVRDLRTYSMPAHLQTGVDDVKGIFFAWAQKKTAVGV
Kind of assay: In vitro inhibition of N-methyl transferase (NMT) from rabbit adrenals. The format is biochemical. The conditions noted are these: for IC50: read-out: pI50 (negative reciprocal logarhithm of the 50 percent inhibitory concentration) (converted); for pIC50: series of decreasing inhibitor concentrations from 1 × 10^-4 M, read-out: 50 Inhibitory Concentration (concentration at which 50 percent inhibition of NMT is obtained). An excerpt:
The compounds of this invention, either in the form of the free base, or as a pharmaceutically-acceptable acid addition salt thereof, are enzyme inhibitors. In particular, as previously stated, they are inhibitors of norephineprine N-methyl transferase [PNMT or phenethanolamine N-methyl transferase--see Axelod, J. Bio, Chem., 237, 1657 (1962)]. Compounds which inhibit the conversion of norephineprine to […], are capable of lowering a high […]-norephineprine ratio in mammals, a physiological condition frequently associated with essential hypertension. The compounds of this invention are thus capable of ameliorating the […]-norephineprine imbalance in essential hypertension, an important aspect of the treatment of this disease state. The effectiveness of the compounds as N-methyl transferase inhibitors has been measured in vitro using NMT from rabbit adrenals. […] The negative reciprocal logarhithm (pI50) of this number was also calculated as a useful index. Table 1, which follows, summarizes the information thus obtained; i.e., the determination of enzyme inhibition activity for the compounds of this invention.

A further assay relates to catechol amine uptake. The following applies: comparison stated in the literature; cited from earlier work.

Molecules are shown by their SMILES. pIC50: −log10 of the molar value. Where a name gives a salt, the structure may show the parent alone. Read-outs that look alike come from different tables or passages of the source.

Turning to `NC1CCc2ccc(Cl)c(Cl)c21` (stereo not drawn) [6,7-dichloro-1-aminoindane], in assay [1], the IC50 was 6.03 µM and the pIC50 is 5.27.
Turning to `NC1Cc2ccccc2C1` [2-aminoindane], the “inhibition of catechol amine uptake, compared with 1-aminoindane” value in the assay on catechol amine uptake is reported as “better inhibitor of catechol amine uptake than 1-aminoindane”.
Consider `NC1CCc2c(Cl)cccc21` (stereo not drawn) [4-Chloro-1-aminoindane hydrochloride, 4-chloro-1-aminoindane hydrochloride], for which, in assay [1], the IC50 was 0.759 µM and the pIC50 was 6.12.
As to `NC1CCc2cc(Cl)c(Cl)cc21` (stereo not drawn) [5,6-dichloro-1-aminoindane maleate], in assay [1], the IC50 is 4.68 µM and the pIC50 was 5.53.
In the case of `NC1CCc2c1ccc(Cl)c2Cl` (stereo not drawn) [4,5-dichloro-1-aminoindane], in assay [1], the IC50 is 0.2 µM and the pIC50 was 6.70.
